The subject of one test is HCT-116 cells. Description: CCK-8 cell viability, HCT-116. Conditions: Homo sapiens, 72 h; for inhibition at 20 µM: HCT-116, read-out: HCT-[…] Inh. at 20 μM, CCK-8, mean ± S.E.M. (n = 3); for IC50: HCT-116, read-out: HCT-116 IC50 in µM, CCK-8, 50% inhibition of viability. Type of test: cell-based. How it is done:
(§1) All cells were purchased from Bioresource Collection and Research Center (Hsinchu, Taiwan) and cultured in corresponding media supplemented with 10% fetal bovine serum, 1 × Antibiotic-Antimycotic at 37 °C in a humidified incubator with 5% CO2. […] T24 cells were cultured in McCoy’s 5a media. IEC-6 cells were cultured in DMEM media supplemented with 5% fetal bovine serum, 1 × Antibiotic–Antimycotic, and 0.1 unit/mL insulin.
(§2) Cells were incubated with the Cell Counting Kit-8 (CCK-8) reagent (TargetMol, Boston, MA, USA) at 37 °C for 2 h. The cell viability was determined by spectrophotometer at 450 nm.

The next test deals with Hela cells. The test is described as follows: CCK-8 cell viability, Hela. Type of test: cell-based. Conditions: Homo sapiens, 72 h; for inhibition at 20 µM: CCK-8, mean ± S.E.M. (n = 3), read-out: Hela % Inh. at μM; for IC50: CCK-8, 50% inhibition of viability. How it is done:
as §1, §2

For a further test, the system named is A549 cells. Description: CCK-8 cell viability, A549. The class given is cell-based. Conditions: Homo sapiens, 72 h, CCK-8, mean ± S.E.M. (n = 3), read-out: A549 % Inh. at μM. How it is done: as §1, §2
In the next test the test system is MCF-7 cells. The test is described as follows: CCK-8 cell viability, MCF-7. Conditions: Homo sapiens, MCF7, 72 h, CCK-8, mean ± S.E.M. (n = 3), read-out: MCF-7 % Inh. at μM. The class given is cell-based. How it is done:
as §1, §2

The target in a further test is Dyrk1B (Homo sapiens, UniProt Q9Y463). The test is described as follows: Z'-LYTE kinase inhibition assay, Dyrk1B. Type of test: biochemical. Conditions: for IC50: ATP conc. equivalent to Km; for inhibition at 1 µM: read-out: Dyrk1B % Inh. At 1 µM. An excerpt:
(§3) 3. Experimental procedure for protein kinases and inhibition assays.
(§4) 3.1 The Z ́ -LYTE biochemical assay for screening and IC 50 determination for Clk1, Dyrk1A, Dyrk1B, Clk2 and Clk3 kinases.
(§5) The assay employs a fluorescence-based, coupled-enzyme format and is based on the differential sensitivity of phosphorylated and non-phosphorylated peptides to proteolytic cleavage. The peptide substrate is labeled with two fluorophores-one at each end-that make up a FRET pair. In the primary reaction, the kinase transfers the gamma-phosphate of ATP to a single tyrosine, serine, or threonine residue in a synthetic FRET-peptide. In the secondary reaction, a site-specific protease recognizes and cleaves non-phosphorylated FRET-peptides. Phosphorylation of FRET-peptides suppresses cleavage by the Development Reagent. Cleavage disrupts FRET between the donor (i.e., coumarin) and acceptor (i.e., fluorescein) fluorophores on the FRET-peptide, whereas uncleaved, phosphorylated FRET-peptides maintain FRET. A ratiometric method, which calculates the ratio (the Emission Ratio) of donor emission to acceptor emission after excitation of the donor fluorophore at 400 nm, is used to quantitate reaction progress. Both cleaved and uncleaved FRET-peptides contribute to the fluorescence signals and therefore to the Emission Ratio. The extent of phosphorylation of the FRET-peptide can be calculated from the Emission Ratio. The Emission Ratio will remain low if the FRET-peptide is phosphorylated (i.e., no kinase inhibition) and will be high if the FRET-peptide is non-phosphorylated (i.e., kinase inhibition).
(§6) The IC 50 values were determined for compounds displaying significant % inhibition in the screening step. IC 50 determination was done through testing at a range of concentrations with two […]
(§7) two independent experiments. […]
3.1.3 Dyrk1B kinase assay specific conditions:
The 2X Dyrk1B / Ser/Thr 18 mixture is prepared in 50 mM HEPES pH 6.5, 0.01% BRIJ-35, 10 […]
mM MgCl2, 1 mM EGTA, 0.02% NaN3.
Development Reagent A is added. […]
(§8) MgCl2, 1 mM EGTA, 0.02% NaN3. […]

In a further test the target is T1, GSG2 (Haspin) (Homo sapiens, UniProt Q8TF76).
T1 construct: purchased Thermo Fisher Scientific, Madison, WI, USA (assay run there)
T1 sequence (Q8TF76 1-798): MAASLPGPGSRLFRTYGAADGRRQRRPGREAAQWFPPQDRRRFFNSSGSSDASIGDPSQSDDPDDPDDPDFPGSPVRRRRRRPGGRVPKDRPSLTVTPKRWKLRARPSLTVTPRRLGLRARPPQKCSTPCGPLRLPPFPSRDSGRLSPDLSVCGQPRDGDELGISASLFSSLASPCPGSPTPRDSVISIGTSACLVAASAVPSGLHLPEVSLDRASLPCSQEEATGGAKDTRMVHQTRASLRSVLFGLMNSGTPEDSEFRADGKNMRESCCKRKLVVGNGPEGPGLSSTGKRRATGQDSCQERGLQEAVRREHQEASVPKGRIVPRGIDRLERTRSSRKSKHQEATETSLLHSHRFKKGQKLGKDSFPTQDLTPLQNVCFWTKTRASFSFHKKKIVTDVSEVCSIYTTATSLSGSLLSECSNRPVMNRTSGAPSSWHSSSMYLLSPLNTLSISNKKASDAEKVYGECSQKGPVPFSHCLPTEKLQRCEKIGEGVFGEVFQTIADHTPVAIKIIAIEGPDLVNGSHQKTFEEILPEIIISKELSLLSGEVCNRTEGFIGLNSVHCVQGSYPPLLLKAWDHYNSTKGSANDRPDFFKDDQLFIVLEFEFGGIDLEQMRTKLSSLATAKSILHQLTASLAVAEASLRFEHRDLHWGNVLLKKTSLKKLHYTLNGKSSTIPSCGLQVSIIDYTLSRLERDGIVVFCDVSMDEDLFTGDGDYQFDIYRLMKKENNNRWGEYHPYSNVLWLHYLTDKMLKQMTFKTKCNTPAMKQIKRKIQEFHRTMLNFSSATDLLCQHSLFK
Description: Adapta universal kinase assay, Haspin. The class given is biochemical. Conditions: for inhibition at 1 µM: 1 µM compound, screening by Thermo Fisher Scientific; for IC50: ATP concentration equivalent to Km (25 μM ATP). How it is done: 3.2 The Adapta universal kinase assay for screening and IC 50 determination against haspin.
The haspin kinase assay was done at Thermo Fisher Scientific, Madison, WI, USA using a fluorescence-based immunoassay known as ‘The Adapta Universal Kinase Assay’, which detects the ADP produced by kinases utilizing the TR-FRET technology. The final 10 μL kinase reaction consists of 0.25 - 1 ng GSG2 (Haspin) and 100 μM of the substrate (Histone H3 (1-20) peptide) in […]
μM ATP. After an incubation time of 1 h at RT, 5 μL of a detection mix was added.
To determine the half maximal inhibitory concentration (IC 50), the assays were performed in duplicate in the absence or presence of increasing doses of the tested compounds.

The target in another test is Clk2 (Homo sapiens, UniProt P49760). Description: Z'-LYTE kinase inhibition assay, Clk2. Type of test: biochemical. Conditions: for inhibition at 1 µM: 1 µM compound, screening by Thermo Fisher Scientific; for IC50: ATP concentration equivalent to Km.
Excerpt: as §3, §4, §5, §6, §7
Development Reagent A is added.
3.1.4 Clk2 kinase assay specific conditions:
The 2X Clk2 / Ser/Thr 06 mixture is prepared in 50 mM HEPES pH 7.5, 0.01% BRIJ-35, 10 mM […]
Ser/Thr 06 in 50 mM HEPES pH 7.5, 0.01% BRIJ-35, 10 mM MgCl2, 1 mM EGTA. […]
as §8

Dyrk1B, sequence (Q9Y463 whole entry): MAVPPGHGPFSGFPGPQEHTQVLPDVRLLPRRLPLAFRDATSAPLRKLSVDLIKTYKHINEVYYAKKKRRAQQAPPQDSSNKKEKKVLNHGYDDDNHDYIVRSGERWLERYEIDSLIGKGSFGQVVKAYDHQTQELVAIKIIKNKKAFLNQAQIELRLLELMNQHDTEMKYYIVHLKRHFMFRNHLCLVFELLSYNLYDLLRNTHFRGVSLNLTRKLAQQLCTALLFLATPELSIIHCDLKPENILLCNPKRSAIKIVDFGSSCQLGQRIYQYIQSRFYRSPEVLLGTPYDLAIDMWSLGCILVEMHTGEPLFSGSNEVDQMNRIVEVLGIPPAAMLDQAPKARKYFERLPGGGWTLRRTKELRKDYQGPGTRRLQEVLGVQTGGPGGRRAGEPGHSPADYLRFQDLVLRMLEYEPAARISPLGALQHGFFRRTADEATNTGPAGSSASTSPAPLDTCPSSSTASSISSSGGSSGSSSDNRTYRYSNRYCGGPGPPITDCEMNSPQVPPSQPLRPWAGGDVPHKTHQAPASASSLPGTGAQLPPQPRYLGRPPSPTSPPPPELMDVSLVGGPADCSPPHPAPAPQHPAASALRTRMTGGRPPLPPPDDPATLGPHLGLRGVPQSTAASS
Clk2, sequence (P49760 whole entry): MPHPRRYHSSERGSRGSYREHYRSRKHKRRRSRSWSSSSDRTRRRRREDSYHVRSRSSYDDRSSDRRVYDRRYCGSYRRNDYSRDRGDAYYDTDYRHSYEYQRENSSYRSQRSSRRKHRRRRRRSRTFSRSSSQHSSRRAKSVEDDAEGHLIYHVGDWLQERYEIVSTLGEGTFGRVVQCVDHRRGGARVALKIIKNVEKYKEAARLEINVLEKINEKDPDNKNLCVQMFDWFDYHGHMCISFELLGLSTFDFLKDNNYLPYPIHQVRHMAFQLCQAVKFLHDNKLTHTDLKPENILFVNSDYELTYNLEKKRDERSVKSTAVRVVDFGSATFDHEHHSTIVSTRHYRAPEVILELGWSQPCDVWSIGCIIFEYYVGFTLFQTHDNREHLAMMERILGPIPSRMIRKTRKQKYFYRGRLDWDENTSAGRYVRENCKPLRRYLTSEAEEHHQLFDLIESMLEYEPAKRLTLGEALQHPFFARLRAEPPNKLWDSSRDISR

With `O=C(NCc1cccc(Cl)c1)c1cc2cc(O)ccc2s1` [Compound 3, N-(3-Chlorobenzyl)-5-hydroxybenzo[b]thiophene-2-carboxamide], the inhibition at 20 µM in the test on HCT-116 cells worked out at 25.9 ± 2.54%; with Hela cells, 50.5 ± 3.93%; with A549 cells, 54.7 ± 3.77%; in the test with MCF-7 cells, 15.6 ± 3.85%. The IC50 on Dyrk1B worked out at 530 nM. Further, the inhibition at 1 µM was 66% on Dyrk1B, 54% against GSG2 (Haspin) and 46% against Clk2.

For `O=C(NCc1cccc(F)c1)c1cc2cc(O)ccc2s1` [Compound 6, N-(3-Fluorobenzyl)-5-hydroxybenzo[b]thiophene-2-carboxamide], the inhibition at 20 µM in the test with HCT-116 cells was 60.1 ± 3.11%; in the test on Hela cells, 53.3 ± 2.22%; in the test with A549 cells, 36.5 ± 1.57%; in the test with MCF-7 cells, 16.2 ± 2.2%. Further, the IC50 at Dyrk1B turned out to be 406 nM; at GSG2 (Haspin), 207 nM. The figures for the inhibition at 1 µM at Dyrk1B, against GSG2 (Haspin) and against Clk2 were 71%, 83% and 38%, respectively.

`COc1ccccc1CNC(=O)c1cc2cc(O)ccc2s1` [Compound 11, 5-Hydroxy-N-(2-methoxybenzyl)benzo[b]thiophene-2-carboxamide]: the inhibition at 20 µM in the test on HCT-116 cells was 0%; in the test on Hela cells, 62.1 ± 1.97%; in the test on A549 cells, 34.7 ± 3.91%; in the test on MCF-7 cells, 56.4 ± 4.47%. Moreover, the IC50 with Hela cells is 19300 nM; on Dyrk1B it was 578 nM. The inhibition at 1 µM on Dyrk1B came to 64%; on GSG2 (Haspin) it was 46%; at Clk2, 50%.

Take `COc1cccc(CNC(=O)c2cc3cc(O)ccc3s2)c1` [Compound 12, 5-Hydroxy-N-(3-methoxybenzyl)benzo[b]thiophene-2-carboxamide]: the 50% inhibitory concentration (IC50) in the test with HCT-116 cells is 6.4 µM; at Dyrk1B, 238 nM; at GSG2 (Haspin) it was 167 nM; on Clk2 it was 617 nM. Further, the inhibition at 20 µM in the test with HCT-116 cells came to 75.7 ± 0.31%; with Hela cells, 50.7 ± 2.41%; with A549 cells it was 41 ± 8.96%; in the test on MCF-7 cells it was 93.5 ± 0.17%. For the same compound, the inhibition at 1 µM on Dyrk1B turned out to be 81%; at GSG2 (Haspin) it was 85%; against Clk2, 62%.

Regarding `O=C(NCc1cc(F)cc(F)c1)c1cc2cc(O)ccc2s1` [Compound 17, N-(3,5-Difluorobenzyl)-5-hydroxybenzo[b]thiophene-2-carboxamide], the IC50 is 8.1 µM with HCT-116 cells; 18100 nM in the test with Hela cells; 242 nM on Dyrk1B; 256 nM on GSG2 (Haspin); 708 nM at Clk2. Besides, the inhibition at 20 µM in the test with HCT-116 cells is 67.6 ± 0.58%; in the test on Hela cells, 60.9 ± 2.82%; in the test on A549 cells, 38.8 ± 4.06%; in the test on MCF-7 cells it was 20.9 ± 2.02%. Besides, the “Improvement in inhibitory activity against Dyrk1B compared to compound 1” value on Dyrk1B (ratio of IC50 vs compound 1) amounted to 4 fold. Moreover, the figures for the inhibition at 1 µM at Dyrk1B, against GSG2 (Haspin) and on Clk2 were 81%, 80% and 62%, respectively.

One may read the IC50 as the concentration at which inhibition is half-maximal.

These data come from publication PMC11171218, “N-Benzylated 5-Hydroxybenzothiophene-2-carboxamides as Multi-Targeted Clk/Dyrk Inhibitors and Potential Anticancer Agents” (Cancers, 2024).
